# Measured values: patent US10189854B2, “Substituted pyrimidine compounds” (Grünenthal GmbH, priority 2014, dated 2019)
# Target: human PDE4B1 (Homo sapiens (Human), UniProt Q07343)
# Assay: cAMP HTRF assay to determine the activity of hPDE4B1
# Type: biochemical
# Settings: IC50 inhibition of PDE4B; human recombinant PDE4B1, cAMP HTRF assay
# Summary of the method: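 Recombinant human PDE4B1 expressed in Sf9 cells (4.8 U) was incubated with 40 nM cAMP for 30 min at room temperature in Tris buffer, pH 7.8, with MgCl2, DTT and Tween 20. HTRF detection of remaining cAMP followed, with 1 mM IBMX stop, read 60 min later as the 665/620 nm ratio. Results are % inhibition versus control.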
# Sequence of human PDE4B1 (Q07343 whole entry): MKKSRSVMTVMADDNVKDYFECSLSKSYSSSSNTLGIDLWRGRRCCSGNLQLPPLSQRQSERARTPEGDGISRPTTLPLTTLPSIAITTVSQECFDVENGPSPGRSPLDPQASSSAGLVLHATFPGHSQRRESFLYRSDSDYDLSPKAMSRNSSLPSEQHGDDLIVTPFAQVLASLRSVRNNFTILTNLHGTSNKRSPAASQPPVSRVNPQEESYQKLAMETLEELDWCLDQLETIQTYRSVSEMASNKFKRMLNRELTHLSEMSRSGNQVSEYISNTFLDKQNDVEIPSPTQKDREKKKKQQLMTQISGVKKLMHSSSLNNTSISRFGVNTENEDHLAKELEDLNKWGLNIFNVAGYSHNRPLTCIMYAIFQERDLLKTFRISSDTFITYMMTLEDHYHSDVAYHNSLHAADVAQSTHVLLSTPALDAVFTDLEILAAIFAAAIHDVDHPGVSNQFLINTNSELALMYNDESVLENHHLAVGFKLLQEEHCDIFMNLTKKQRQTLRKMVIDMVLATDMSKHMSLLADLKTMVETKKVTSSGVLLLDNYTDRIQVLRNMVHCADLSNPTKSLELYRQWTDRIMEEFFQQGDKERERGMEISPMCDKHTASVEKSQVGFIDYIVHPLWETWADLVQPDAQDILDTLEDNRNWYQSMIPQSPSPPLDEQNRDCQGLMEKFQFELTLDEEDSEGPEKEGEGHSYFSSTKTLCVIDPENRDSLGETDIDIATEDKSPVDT
row,IC50,Compound
1,< 0.1 µM,"N[C@@H]1CCN(C(=O)c2ccc3c(c2)N(c2ncc(-c4ccccc4F)cn2)CC32CC2)C1 [Compound 40, [(3R)-3-Amino-pyrrolidin-1-yl]-[1-[5-(2-fluorophenyl)-pyrimidin-2-yl]-spiro[1,2-dihydro-indole-3,1′-cyclopropane]-6-yl]-methanone]"
2,< 0.1 µM,"[1-[5-(4-Amino-pyridin-2-yl)-pyrimidin-2-yl]-spiro[1,2-dihydro-indole-3,1′-cyclopropane]-6-yl]-morpholin-4-yl-methanone [Compound 181]"
3,< 0.1 µM,"O=C(c1ccc2c(c1)N(c1ncc(-c3ccc(F)cc3)cn1)CC21CC1)N1CCOCC1 [Compound 43, [1-[5-(4-Fluorophenyl)-pyrimidin-2-yl]-spiro[1,2-dihydro-indole-3,1′-cyclopropane]-6-yl]-morpholin-4-yl-methanone]"
4,< 0.1 µM,"O=C(c1ccc2c(c1)N(c1ncc(-c3cccc(F)c3)cn1)CC21CC1)N1CCOCC1 [Compound 57, [1-[5-(3-Fluorophenyl)-pyrimidin-2-yl]-spiro[1,2-dihydro-indole-3,1′-cyclopropane]-6-yl]-morpholin-4-yl-methanone]"
5,0.1 to 1 µM,"O=C(c1ccc2c(c1)N(c1ncc(-c3cc(OC(F)(F)F)ccc3F)cn1)CC21CC1)N1CCOCC1 [Compound 67, [1-[5-(2-Fluoro-5-(trifluoromethyloxy)-phenyl]-pyrimidin-2-yl]-spiro[1,2-dihydro-indole-3,1′-cyclopropane]-6-yl]-morpholin-4-yl-methanone]"
6,0.1 to 1 µM,"N#Cc1ccc(-c2cnc(N3CC4(CC4)c4ccc(C(=O)N5CCOCC5)cc43)nc2)c(F)c1 [Compound 30, 3-Fluoro-4-[2-[6-(morpholine-4-carbonyl)-spiro[1,2-dihydro-indole-3,1′-cyclopropane]-1-yl]-pyrimidin-5-yl]-benzonitrile]"
7,0.1 to 1 µM,"[1-[5-(1-Cyclopropyl-phenyl)-pyrimidin-2-yl]-spiro[1,2-dihydro-indole-3,1′-cyclopropane]-6-yl]-piperazin-1-yl-methanone [Compound 70]"
8,< 0.1 µM,"CN(CCN)C(=O)c1ccc2c(c1)N(c1ncc(-c3ccccc3F)cn1)CC21CC1 [Compound 41, N-(2-Amino-ethyl)-1-[5-(2-fluorophenyl)-pyrimidin-2-yl]-N-methyl-spiro[1,2-dihydro-indole-3,1′-cyclopropane]-6-carboxylic acid amide]"
9,0.1 to 1 µM,"Cc1cccc(F)c1-c1cnc(N2CC3(CC3)c3ccc(C(=O)N4CCOCC4)cc32)nc1 [Compound 69, [1-[5-(2-Fluoro-6-methyl-phenyl)-pyrimidin-2-yl]-spiro[1,2-dihydro-indole-3,1′-cyclopropane]-6-yl]-morpholin-4-yl-methanone]"
10,< 0.1 µM,"O=C(c1ccc2c(c1)N(c1ncc(-c3ccccc3)cn1)CC21CC1)N1CCCC1 [Compound 59, [1-(5-Phenyl-pyrimidin-2-yl)-spiro[1,2-dihydro-indole-3,1′-cyclopropane]-6-yl]-pyrrolidin-1-yl-methanone]"
11,< 0.1 µM,"Cc1cc(-c2cnc(N3CC4(CC4)c4ccc(C(=O)N5CCOCC5)cc43)nc2)ccn1 [Compound 159, [1-[5-(2-Methyl-pyridin-4-yl)-pyrimidin-2-yl]-spiro[1,2-dihydro-indole-3,1′-cyclopropane]-6-yl]-morpholin-4-yl-methanone]"
12,1 to 10 µM,"COc1ccc(C(N)=O)c(-c2cnc(N3CC4(CC4)c4ccc(C(=O)N5CCNCC5)cc43)nc2)c1 [Compound 122, 4-Methoxy-2-[2-[6-(piperazine-1-carbonyl)-spiro[1,2-dihydro-indole-3,1′-cyclopropane]-1-yl]-pyrimidin-5-yl]-benzamide]"
13,< 0.1 µM,"NC(=O)c1ccc(F)c(-c2cnc(N3CC4(CC4)c4ccc(C(=O)N5CCNCC5)cc43)nc2)c1 [Compound 116, 4-Fluoro-3-[2-[6-(piperazine-1-carbonyl)-spiro[1,2-dihydro-indole-3,1′-cyclopropane]-1-yl]-pyrimidin-5-yl]-benzamide]"
14,< 0.1 µM,"N-(2-Hydroxy-ethyl)-1-[5-(3-methoxyphenyl)-pyrimidin-2-yl]-N-methyl-spiro[1,2-dihydro-indole-3,1′-cyclopropane]-6-carboxylic acid amide [Compound 197]"
15,< 0.1 µM,"CN(C)C(=O)c1ccc2c(c1)N(c1ncc(-c3cccnc3F)cn1)CC21CC1 [Compound 174, 1-[5-(2-Fluoro-pyridin-3-yl)-pyrimidin-2-yl]-N,N-dimethyl-spiro[1,2-dihydro-indole-3,1′-cyclopropane]-6-carboxylic acid amide]"
16,< 0.1 µM,"O=C1CN(C(=O)c2ccc3c(c2)N(c2ncc(-c4cc(F)cc(F)c4)cn2)CC32CC2)CCN1 [Compound 128, 4-[1-[5-(3,5-Difluoro-phenyl)-pyrimidin-2-yl]-spiro[1,2-dihydro-indole-3,1′-cyclopropane]-6-carbonyl]-piperazin-2-one]"

row,IC50,Compound
1,< 0.1 µM,"O=C(c1ccc2c(c1)N(c1ncc(-c3ccncc3)cn1)CC21CC1)N1CCOCC1 [Compound 146, Morpholin-4-yl-[1-(5-pyridin-4-yl-pyrimidin-2-yl)-spiro[1,2-dihydro-indole-3,1′-cyclopropane]-6-yl]-methanone]"
2,0.1 to 1 µM,"CC1(C)CN(C(=O)c2ccc3c(c2)N(c2ncc(-c4ccccc4F)cn2)CC32CC2)CCO1 [Compound 105, (2,2-Dimethyl-morpholin-4-yl)-[1-[5-(2-fluorophenyl)-pyrimidin-2-yl]-spiro[1,2-dihydro-indole-3,1′-cyclopropane]-6-yl] methanone]"
3,0.1 to 1 µM,"O=C(NCCN1CCCC1=O)c1ccc2c(c1)N(c1ncc(-c3ccccc3F)cn1)CC21CC1 [Compound 78, 1-[5-(2-Fluorophenyl)-pyrimidin-2-yl]-N-[2-(2-oxo-pyrrolidin-1-yl)-ethyl]-spiro[1,2-dihydro-indole-3,1′-cyclopropane]-6-carboxylic acid amide]"
4,< 0.1 µM,"O=C(c1ccc2c(c1)N(c1ncc(-c3c(F)cccc3F)cn1)CC21CC1)N1CCOCC1 [Compound 27, [1-[5-(2,6-Difluoro-phenyl)-pyrimidin-2-yl]-spiro[1,2-dihydro-indole-3,1′-cyclopropane]-6-yl]-morpholin-4-yl-methanone]"
5,0.1 to 1 µM,"CCN1CCN(C(=O)c2ccc3c(c2)N(c2ncc(-c4ccccc4F)cn2)CC32CC2)CC1 [Compound 86, (4-Ethyl-piperazin-1-yl)-[1-[5-(2-fluorophenyl)-pyrimidin-2-yl]-spiro[1,2-dihydro-indole-3,1′-cyclopropane]-6-yl]methanone]"
6,1 to 10 µM,"O=C(c1ccc2c(c1)N(c1ncc(-c3ccccc3F)cn1)CC21CC1)N1CC2(COC2)C1 [Compound 64, [1-[5-(2-Fluorophenyl)-pyrimidin-2-yl]-spiro[1,2-dihydro-indole-3,1′-cyclopropane]-6-yl]-(2-oxa-6-azaspiro[3.3]heptan-6-yl)-methanone]"
7,< 0.1 µM,"[1-[5-(4-Fluoro-pyridin-2-yl)-pyrimidin-2-yl]-spiro[1,2-dihydro-indole-3,1′-cyclopropane]-6-yl]-morpholin-4-yl-methanone [Compound 187]"
8,< 0.1 µM,"O=C(c1ccc2c(c1)N(c1ncc(-c3cncnc3)cn1)CC21CC1)N1CCOCC1 [Compound 162, Morpholin-4-yl-[1-(5-pyrimidin-5-yl-pyrimidin-2-yl)-spiro[1,2-dihydro-indole-3,1′-cyclopropane]-6-yl]-methanone]"
9,0.1 to 1 µM,"CN(C)[C@@H]1CCN(C(=O)c2ccc3c(c2)N(c2ncc(-c4ccccc4F)cn2)CC32CC2)C1 [Compound 110, [(3R)-3-Dimethylamino-pyrrolidin-1-yl]-[1-[5-(2-fluorophenyl)-pyrimidin-2-yl]-spiro[1,2-dihydro-indole-3,1′-cyclopropane]-6-yl]-methanone]"
10,< 0.1 µM,"COc1ccsc1-c1cnc(N2CC3(CC3)c3ccc(C(=O)N4CCOCC4)cc32)nc1 [Compound 139, [1-[5-(3-Methoxy-thiophen-2-yl)-pyrimidin-2-yl]-spiro[1,2-dihydro-indole-3,1′-cyclopropane]-6-yl]-morpholin-4-yl-methanone]"
11,1 to 10 µM,"O=C(c1ccc2c(c1)N(c1ncc(-c3ccccc3F)cn1)CC21CC1)N1CCCCC1CO (centres unmarked) [Compound 97, [1-[5-(2-Fluorophenyl)-pyrimidin-2-yl]-spiro[1,2-dihydro-indole-3,1′-cyclopropane]-6-yl]-[2-(hydroxymethyl)-piperidin-1-yl]-methanone]"
12,0.1 to 1 µM,"O=C(c1ccc2c(c1)N(c1ncc(-c3ccc(Cl)s3)cn1)CC21CC1)N1CCOCC1 [Compound 131, [1-[5-(5-Chloro-thiophen-2-yl)-pyrimidin-2-yl]-spiro[1,2-dihydro-indole-3,1′-cyclopropane]-6-yl]-morpholin-4-yl-methanone]"
13,< 0.1 µM,"N#Cc1ccc(-c2cnc(N3CC4(CC4)c4ccc(C(=O)N5CCOCC5)cc43)nc2)s1 [Compound 143, 5-[2-(6-(Morpholine-4-carbonyl)-spiro[1,2-dihydro-indole-3,1′-cyclopropane]-1-yl]-pyrimidin-5-yl]-thiophene-2-carbonitrile]"
14,< 0.1 µM,"NC(=O)c1ccc(-c2cnc(N3CC4(CC4)c4ccc(C(=O)N5CCNCC5)cc43)nc2)c(F)c1 [Compound 119, 3-Fluoro-4-[2-[6-(piperazine-1-carbonyl)-spiro[1,2-dihydro-indole-3,1′-cyclopropane]-1-yl]-pyrimidin-5-yl]-benzamide]"
15,< 0.1 µM,"Cn1ccc(-c2cnc(N3CC4(CC4)c4ccc(C(=O)N5CC[C@@H](N)C5)cc43)nc2)c1 [Compound 172, [(3R)-3-Amino-pyrrolidin-1-yl]-[1-[5-(1-methyl-1H-pyrrol-3-yl)-pyrimidin-2-yl]-spiro[1,2-dihydro-indole-3,1′-cyclopropane]-6-yl]-methanone]"

row,Compound,IC50
1,"NC(=O)c1ccc(F)c(-c2cnc(N3CC4(CC4)c4ccc(C(=O)N5CCOCC5)cc43)nc2)c1 [Compound 35, 4-Fluoro-3-[2-[6-(morpholine-4-carbonyl)-spiro[1,2-dihydro-indole-3,1′-cyclopropane]-1-yl]-pyrimidni-5-yl]-benzamide]",< 0.1 µM
